Measurements taken from publication PMC9181982, “Biphenyl Ether Analogs Containing Pomalidomide as Small-Molecule Inhibitors of the Programmed Cell Death-1/Programmed Cell Death-Ligand 1 Interaction” (Molecules, 2022).

Assays:
[1] = tested on: PD-1/PD-L1 blockade, Jurkat effector cells / CHO/TCRAct/PD-L1 cells; assay: Immune checkpoint blockade (ICB) assay (Promega): Jurkat ECs co-cultured with CHO/TCRAct/PD-L1 cells, NFAT luciferase readout; format: cell-based, human; details: for Activation of Jurkat ECs in the ICB assay: 6 h co-culture, fold induction vs control; for Promega Assay (active / not active): cell-based PD-1/PD-L1 blockade bioassay
Experimental: In order to explore the bioactivity of the synthesized compounds, a well-recognized immune checkpoint blockade (ICB) assay was performed. In the assay, artificial T cells, the Jurkat effector cells (Jurkat ECs), i.e., the Jurkat T cells overexpressing PD-1 and luciferase-coding gene under the control of the TCR-inducible NFAT response element, are contacted with artificial antigen-presenting CHO/TCRAct/PD-L1 cells, as illustrated in [31]. The latter is the CHO cells equipped with the TCR activator molecule, which delivers activation of Jurkat ECs, and also the PD-L1 protein, which provides a negative signal towards the activation of Jurkat ECs. Upon the blockade of the PD-1/PD-L1 interaction, activation of Jurkat ECs is increased, as we have shown before for several classes of therapeutic antibodies and small molecules.
The human PD-L1-expressing CHO-K1 cells overexpressing TCR activator (CHO/TCRAct/PD-L1) cells and Jurkat ECs T cells overexpressing PD-1 and carrying a luciferase reporter gene under the control of the Nuclear Factor of Activated T cells Response Element (NFAT-RE) were obtained from Promega and cultured in an RPMI-1640 medium (Biowest, Nuaillé, France) supplemented with 10% fetal bovine serum (FBS, Biowest, Nuaillé, France) and […] L-glutamine (Biowest, Nuaillé, France). G418 (250 µg/mL, InvivoGen, San Diego, CA, USA) and Hygromycin B Gold (50 µg/mL, InvivoGen, San Diego, CA, USA) were also added to the culture medium as selection antibiotics. CAKI 2, LNCap, PC-3, and MDA-MB-231 cells were purchased from the European Collection of Authenticated Cell Cultures (ECACC) and cultured according to the provided protocol.
For the analysis of biological activity of the analyzed compounds, an immune checkpoint blockade (ICB) assay was performed. For this, the culture of Jurkat effector cells (Jurkat-ECs) and […] was carried out. The assay was performed according to the protocol described in our previous works. All the experiments were performed three times as independent experiments.
Figure 2 Bioactivity of the indicated compounds. (A,B) The activity was monitored with a cell-based immune checkpoint blockade (ICB) assay. Jurkat ECs were contacted with pre-seeded CHO/TCRAct/PD-L1 cells in the presence of the indicated concentrations of the compounds (A) or durvalumab (B) as a positive control. The cells were co-cultured for 6 h and the luminescence signal was measured following the addition of the Bio-Glo substrate. The graphs show fold induction calculated versus either DMSO-treated (for small molecules) or untreated (for durvalumab) control (ctrl) cells. The results are mean ± SD from three independent experiments. […] (C) Analysis of the expression of PD-L1 in four human cancer cell lines compared to PD-L1-overexpressing CHO/TCRAct/PD-L1 cells. (D) Analysis of the expression of PD-L1 in MDA-MB-231 cells treated with either 4 or 5 compounds for 6 or 24 h.

PD-1/PD-L1 complex = target: T1, PD-1/PD-L1 complex (Homo sapiens, UniProt Q9NZQ7); assay: HTRF (homogeneous time-resolved fluorescence) PD-1/PD-L1 binding assay (Cis-Bio); details: for inhibition at 0.5 µM / HTRF: Percentage of the Dissociated PD-1/PD-L1 Complex, 0.5 µM Ligand Conc.: 0.5 µM ligand; for inhibition at 0.5 µM / inhibition at 5 µM / HTRF: Percentage of the Dissociated PD-1/PD-L1 Complex, 0.5 µM Ligand Conc. / HTRF: Percentage of the Dissociated PD-1/PD-L1 Complex, 5 µM Ligand Conc.: 5 nM hPD-L1, 50 nM hPD-1; for inhibition at 0.5 µM: read-out: HTRF: Percentage of the Dissociated PD-1/PD-L1 Complex, 0.5 µM Ligand Conc.; for inhibition at 5 µM / HTRF: Percentage of the Dissociated PD-1/PD-L1 Complex, 5 µM Ligand Conc.: 5 µM ligand; for inhibition at 5 µM: read-out: HTRF: Percentage of the Dissociated PD-1/PD-L1 Complex, 5 µM Ligand Conc.
T1 construct: purchased Cis-Bio
T1 sequence (Q9NZQ7 19-238 limits assumed, one chain of several): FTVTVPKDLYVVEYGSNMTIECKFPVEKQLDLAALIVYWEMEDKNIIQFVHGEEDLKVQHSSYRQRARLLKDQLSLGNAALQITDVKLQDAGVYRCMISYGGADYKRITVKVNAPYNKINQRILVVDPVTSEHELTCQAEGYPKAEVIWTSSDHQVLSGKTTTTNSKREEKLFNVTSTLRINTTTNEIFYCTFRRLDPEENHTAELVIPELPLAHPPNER
Experimental: To validate the activity toward PD-L1 of our compounds, we carried out an HTRF (homogeneous time-resolved fluorescence) experiment at two concentrations of the ligand (5 µM and 0.5 µM) (Table 1).
HTRF was carried out using a certified Cis-Bio assay according to the manufacturer’s guidelines. The experiments were carried out at 5 nM of h-L1 and 50 nM of hPD-1 in the final formulation at the 20 µL final volume in the well. To determine the half maximal inhibitory concentrations (IC50) of the tested compounds, the measurements were carried out on two individual dilution series unless stated otherwise. After mixing all the components according to the Cis-Bio protocol, the plate was left for 2 h incubation at room temperature followed by the TR-FRET measurement on a Tecan Spark 20M. […] The collected data was background-subtracted from the negative control, normalized on the positive control, averaged, and fitted with the normalized Hill’s equation to determine the IC50 value using Mathematica 12 (Princeton, NJ, USA).

PD-L1 protein = target: T2, PD-L1 protein (Homo sapiens, UniProt Q9NZQ7); assay: 1H NMR binding analysis, PD-L1 protein titrated with ligand
T2 construct: PD-L1 gene (amino acids 18–239); made in house; host or cells: E. coli BL21
T2 sequence (Q9NZQ7 18-239): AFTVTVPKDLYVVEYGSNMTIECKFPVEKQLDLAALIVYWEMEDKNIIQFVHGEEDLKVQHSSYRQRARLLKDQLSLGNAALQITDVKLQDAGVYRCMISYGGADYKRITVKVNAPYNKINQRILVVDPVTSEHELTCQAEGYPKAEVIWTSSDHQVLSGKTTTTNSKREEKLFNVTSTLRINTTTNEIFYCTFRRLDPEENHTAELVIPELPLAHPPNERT
Experimental: Apart from the HTRF assay, we performed the NMR [33, 34] binding analysis by recording the ^1H spectrum of the PD-L1 protein titrated with compound 4 (Figure 1).
The E. coli strain BL21 was transformed with a pET-21b plasmid carrying the PD-L1 gene (amino acids 18–239). The bacteria were cultured in LB at 37 °C until OD600nm of 0, 6 when the recombinant protein production was induced with 1 mM IPTG. The protein production continued overnight. The inclusion bodies were collected by centrifugation, washed twice with 50 mM Tris HCl, pH 8.0, containing 200 mM NaCl, 10 mM EDTA, 10 mM 2-mercaptoethanol, and 0.5% Triton X-100, followed by a single wash with the same buffer but with no Triton X-100. The washed inclusion bodies were resuspended overnight in 50 mM Tris HCl, pH 8.0, 6 M GuHCl, 200 mM NaCl, and 10 mM 2-mercaptoethanol and clarified with centrifugation. Refolding of PD-L1 was performed by dropwise dilution into 0.1 M Tris HCl, pH 8.0, containing 1 M L-arginine hydrochloride, 0.25 mM oxidized glutathione, and 0.25 mM reduced glutathione. The refolded protein was dialyzed three times against 10 mM Tris HCl, pH 8.0, containing 20 mM NaCl and purified by size exclusion chromatography using Superdex 75 and a dialysis buffer. The quality of the refolded protein was evaluated by SDS-PAGE and NMR.
NMR spectra were recorded in PBS, pH 7.4, containing 10% (v/v) of D2O added to the samples to provide the lock signal. Water suppression was carried out using the WATERGATE sequence. All the spectra were recorded at 300 K using a Bruker Avance 600 MHz spectrometer with the Cryo-Platform. The NMR spectrum was recorded at three different ligand/protein ratios from 0 to 10. The samples were prepared by adding small amounts of a 50 mM ligand stock solution in DMSO to the protein solution (0.20 mL) of the PD-L1 fragment at a concentration of 0.14 mM. The acquisition parameters for each spectrum were as follows: size of FID32768, number of scans: 32. The spectra were visualized using TopSpin 4.0.2. (Bruker, Billerica, MA, USA)

| Compound | inhibition at 0.5 µM (PD-1/PD-L1 complex) [%] | inhibition at 5 µM (PD-1/PD-L1 complex) [%] | Promega Assay (active / not active) [1] | further results |
| --- | --- | --- | --- | --- |
| durvalumab |  |  |  | Activation of Jurkat ECs in the ICB assay [1]: increase the activation of Jurkat ECs |
| Cc1c(COc2cc(OCc3cccc(C#N)c3)c(CN3C[C@H](O)C[C@@H]3C(=O)O)cc2Cl)cccc1-c1ccc2c(c1)OCCO2 [BMS-1166, reference compound] |  |  |  | Protein precipitation during NMR titration (PD-L1 protein; 1H NMR titration, compound 6 at protein–ligand ratio 1:10): not observed; HTRF: Percentage of the Dissociated PD-1/PD-L1 Complex, 0.5 µM Ligand Conc. (PD-1/PD-L1 complex): 100%; HTRF: Percentage of the Dissociated PD-1/PD-L1 Complex, 5 µM Ligand Conc. (PD-1/PD-L1 complex): 100% |
| N1-(2-(2,6-dioxopiperidin-3-yl)-1,3-dioxoisoindolin-4-yl)-N5-((6-((2-methyl-[1,1′-biphenyl]-3-yl)methoxy)-3-((1-phenylethyl)amino)imidazo [1,2-a]pyridin-2-yl)methyl)glutaramide [compound 13] |  |  | Not active | HTRF: Percentage of the Dissociated PD-1/PD-L1 Complex, 0.5 µM Ligand Conc. (PD-1/PD-L1 complex): 30.4%; HTRF: Percentage of the Dissociated PD-1/PD-L1 Complex, 5 µM Ligand Conc. (PD-1/PD-L1 complex): 31.1% |
| Cc1c(COc2ccc3nc(CNC(=O)CCCC(=O)Nc4cccc5c4C(=O)N(C4CCC(=O)NC4=O)C5=O)c(NCc4cccc(C#N)c4)n3c2)cccc1-c1ccc(F)cc1 (stereo not drawn) [compound 12, N1-((3-((3-cyanobenzyl)amino)-6-((4′-fluoro-2-methyl-[1,1′-biphenyl]-3-yl)methoxy)imidazo [1,2-a]pyridin-2-yl)methyl)-N5-(2-(2,6-dioxopiperidin-3-yl)-1,3-dioxoisoindolin-4-yl)glutaramide] | 40.9 | 76.3 | Not active |  |
| Cc1c(COc2cc(OCc3cccc(C#N)c3)c(CN3C[C@H](O)C[C@@H]3C(=O)NCC3CCN(CC(=O)Nc4cccc5c4C(=O)N(C4CCC(=O)NC4=O)C5=O)CC3)cc2Cl)cccc1-c1ccc2c(c1)OCCO2 (stereo partly drawn) [compound 1, (2R,4R)-1-(5-chloro-2-((3-cyanobenzyl)oxy)-4-((3-(2,3-dihydrobenzo[b][1,4]dioxin-6-yl)-2-methylbenzyl)oxy)benzyl)-N-((1-(2-((2-(2,6-dioxopiperidin-3-yl)-1,3-dioxoisoindolin-4-yl)amino)-2-oxoethyl)piperidin-4-yl)methyl)-4-hydroxypyrrolidine-2-carboxamide] | 23.7 | 68.3 | Not active |  |
| Nc1cccc2c1C(=O)N(C1CCC(=O)NC1=O)C2=O (stereo not drawn) [pomalidomide] |  |  |  | Activation of Jurkat ECs in the ICB assay [1]: did not increase the activation of Jurkat ECs; Binding to PD-L1 by 1H NMR titration (PD-L1 protein; PBS pH 7.4, 300 K, protein–ligand ratios up to 1:10): lack of interaction; HTRF: Percentage of the Dissociated PD-1/PD-L1 Complex, 0.5 µM Ligand Conc. (PD-1/PD-L1 complex): 11.4%; HTRF: Percentage of the Dissociated PD-1/PD-L1 Complex, 5 µM Ligand Conc. (PD-1/PD-L1 complex): 20.1% |

More lines, main results first:

| inhibition at 0.5 µM (PD-1/PD-L1 complex) [%] | inhibition at 5 µM (PD-1/PD-L1 complex) [%] | Compound | Promega Assay (active / not active) [1] | further results |
| --- | --- | --- | --- | --- |
| 29.4 | 60.6 | COc1cc(-c2cccc(-c3ccc4c(c3)OCCO4)c2Cl)ccc1COC(=O)CCC(=O)N1CCN(c2cccc3c2C(=O)N(C2CCC(=O)NC2=O)C3=O)CC1 (stereo not drawn) [compound 10, (3′-(benzo-1,4-dioxan-6-yl)-2′-chloro-3-methoxy-[1,1′-biphenyl]-4-yl)methyl 4-(4-(2-(2,6-dioxopiperidin-3-yl)-1,3-dioxoisoindolin-4-yl)piperazin-1-yl)-4-oxobutanoate] | Not active |  |
| 26.3 | 40 | COc1cc(-c2cccc(-c3ccc4c(c3)OCCO4)c2Cl)ccc1COC(=O)CCCC(=O)N1CCN(c2cccc3c2C(=O)N(C2CCC(=O)NC2=O)C3=O)CC1 (stereo not drawn) [compound 11] | Not active |  |
| 3.9 | 71.7 | Cc1c(COc2cc(OCc3cccc(C#N)c3)c(CN3C[C@H](O)C[C@@H]3C(=O)NCCCNc3cccc4c3C(=O)N(C3CCC(=O)NC3=O)C4=O)cc2Cl)cccc1-c1ccc2c(c1)OCCO2 (stereo partly drawn) [compound 2, (2R,4R)-1-(5-chloro-2-((3-cyanobenzyl)oxy)-4-((3-(2,3-dihydrobenzo[b][1,4]dioxin-6-yl)-2-methylbenzyl)oxy)benzyl)-N-(3-((2-(2,6-dioxopiperidin-3-yl)-1,3-dioxoisoindolin-4yl)amino)propyl)-4-hydroxypyrrolidine-2-carboxamide] | Not active |  |
| 0 | 35.2 | COc1nc(OCc2cccc(-c3ccccc3)c2C)ccc1C(NCCCNc1cccc2c1C(=O)N(C1CCC(=O)NC1=O)C2=O)c1nnnn1C(C)(C)C (stereo not drawn) [compound 7, 4-((3-(((1-(tert-butyl)-1H-tetrazol-5-yl)(2-methoxy-6-((2-methyl-[1,1′-biphenyl]-3-yl)methoxy)pyridin-3-yl)methyl)amino)propyl)amino)-2-(2,6-dioxopiperidin-3-yl)isoindoline-1,3-dione] | Not active |  |
| 77.8 | 97.1 | Cc1c(COc2cc(OCc3cccc(C#N)c3)c(CNCC3CCN(CC(=O)Nc4cccc5c4C(=O)N(C4CCC(=O)NC4=O)C5=O)CC3)cc2Cl)cccc1-c1ccc2c(c1)OCCO2 (stereo not drawn) [compound 3, 2-(4-(((5-chloro-2-((3-cyanobenzyl)oxy)-4-((3-(2,3-dihydrobenzo[b][1,4]dioxin-6-yl)-2-methylbenzyl)oxy)benzyl)amino)methyl)piperidin-1-yl)-N-(2-(2,6-dioxopiperidin-3-yl)-1,3-dioxoisoindolin-4-yl)acetamide] | Not active | IC50 (PD-1/PD-L1 complex; six ligand concentrations, two dilution series): 60 ± 2 nM |
